In brackets after ≈: the same amount, converted by molar mass. Entries after “also recorded” stand apart in the source; their conditions may differ. Like-named read-outs stand apart in the source and are kept apart here. Numbered stars: 1 amine (or outer) side, 2 acyl side, 3 side chain; on linkers, the order of the positions; unused ones are H or OH. Bridge positions count the residues as written; N and C are the ends. Square brackets hold non-standard residues; d marks the D form. Peptide text beside a SMILES is read from it. * marks the point of attachment. β2hAla(R) = C[C@H](CN[*:1])C(=O)[*:2]; Decanoyl = CCCCCCCCCC(=O)*; Sar = CNCC(=O)O
What was measured:
[1] = system: B. subtilis 168; format: cell-based
Method: MICs were measured in triplicate by microbroth dilution. An overnight culture of B. subtilis 168 (DSMZ German Collection of Microorganisms and Cell Cultures GmbH) was inoculated at 5 × 10^5 CFU/mL in cation-adjusted Mueller–Hinton broth (MHB II) with or without 15 mM or 100 mM CaCl2. Serial two-fold peptide dilutions (128 - 1 µg/mL for analogues and 16 - 0.25 µg/mL for daptomycin) were incubated in polypropylene U-bottom 96-well plates (200 µL final volume) at 37 °C for 24 h. MIC was the lowest concentration at which no growth was observed. Optical density measurements at 620 nm were performed using a Thermo Scientific Multiskan FC (Thermo Fisher Scientific Inc., Paisley, UK). MIC was determined from the lowest concentration at which no tubidity was observed, using an untreated positive growth control, and a broth-only sterility control as references.

[2] = TLC precursor-binding assay with lipid II; parameters: key to Lipid II (TLC binding): “+” indicates binding confirmed; “-” indicates no binding; “~” indicates potential binding with absence of precursor band; details: for Lipid II (TLC binding): peptide 0.5, 1, 2 equiv. (nisin 0.1, 0.5, 1 equiv.) with lipid II in Tris·HCl pH 7.5, 50 mM CaCl2, 1 h, silica TLC; for binding to lipid II in TLC assay (in words): lipid II spot on TLC after incubation, PMA staining in Figure S6
Method: (§1) Lipid II and undecaprenyl phosphate (C55-P) (1 equiv., 30 µL) in Tris•HCl buffer (0.2% Triton X-100, 26 mM MgCl2, and 50 mM CaCl2 at pH 7.5) were incubated with the peptides (0.5, 1, 2 equiv.) or nisin (0.1, 0.5, 1 equiv.) in 30 µL water for 1 h. The reaction was then extracted with ^tBuOH/6 M PyOAc (2/1 v/v, 100 µL) and the organic phase was dried using an Eppendorf vacuum centrifuge 5301 (Fisher Scientific, Loughborough, UK) under reduced pressure. The solid was redissolved in CHCl3/MeOH (1/1 v/v, 30–60 µL) for spotting onto the TLC plates. In addition to the peptide–lipid mixtures, a control of each peptide/nisin with 30 µL buffer, and a control of each lipid with 30 µL HPLC-grade water were also incubated and subjected to the same workup. Silica TLC plates were run in a CHCl3/MeOH/H2O/NH3 (88/48/10/1 v/v) solvent system and stained using iodine vapour, phosphomolybdic acid (PMA), or KMnO4 stain, as well as visualisation at 254 nm and 365 nm.

[3] = TLC precursor-binding assay with C55-P; parameters: key to C55-P (TLC binding): “+” indicates binding confirmed; “-” indicates no binding; “~” indicates potential binding with absence of precursor band; details: for C55-P spot on TLC after incubation with peptide (in words): absence of C55-P spot = potential indicator of binding, KMnO4 staining in Figure S5; for C55-P (TLC binding): peptide 0.5, 1, 2 equiv. with C55-P in Tris·HCl pH 7.5, 50 mM CaCl2, 1 h, silica TLC
Method: as §1

## CCCCCCCCCC(=O)N[C@@H](Cc1c[nH]c2ccccc12)C(=O)N[C@H](CC(N)=O)C(=O)N[C@@H](CC(=O)O)C(=O)N[C@@H]1C(=O)NCC(=O)N[C@@H](CCCN)C(=O)N[C@@H](CC(=O)O)C(=O)N[C@H](C)C(=O)N[C@@H](CC(=O)O)C(=O)NCC(=O)N[C@H](CO)C(=O)N[C@@H]([C@H](C)CC(=O)O)C(=O)N[C@@H](CC(=O)c2ccccc2N)C(=O)O[C@@H]1C [Daptomycin, reference compound]
[1]; B. subtilis 168, MHB II with 0 mM CaCl2, 5 × 10^5 CFU/mL, 37 °C, 24 h, two-fold dilution series, triplicate
  MIC − Ca^2+: 16 µg/mL (≈ 9.87 µM)
[1]; B. subtilis 168, MIC without Ca versus with 15 or 100 mM Ca
  decrease in activity in the absence of calcium: 16- to 32 fold
[2]
  Lipid II (TLC binding): -
[3]
  C55-P spot on TLC after incubation with peptide (in words): a lack of binding
  C55-P (TLC binding): -

## CCCCCCCCCC(=O)NC[C@@H](C)C(=O)NCC(=O)N[C@H](CCC(=O)O)C(=O)N[C@@H](Cc1ccc(O)cc1)C(=O)N[C@@H]1C(=O)N[C@H]([C@H](C)CC)C(=O)N[C@@H](CC(=O)O)C(=O)N[C@@H](CC(=O)O)C(=O)N2CCC[C@H]2C(=O)NCC(=O)N[C@H](CCC(=O)O)C(=O)N[C@@H](CCC(=O)O)C(=O)N(C)CC(=O)O[C@@H]1C [Peptide C1a] (Decanoyl-[β2hAla(R)]G[dE]YT[dI]DDPG[dE]E[Sar]; ester 5-C)
[1]; 168, 24 h
  MIC + Ca^2+: 128 µg/mL
  MIC − Ca^2+: 128 µg/mL (≈ 84.4 µM)
[2]
  Lipid II (TLC binding): -
[3]
  C55-P (TLC binding): -

## CCCCCCCCCC(=O)NC[C@@H](C)C(=O)NCC(=O)N[C@H](CCC(=O)O)C(=O)N[C@@H](Cc1ccc(O)cc1)C(=O)N[C@@H]1C(=O)N[C@H]([C@H](C)CC)C(=O)N[C@@H](CC(=O)O)C(=O)N[C@@H](CC(=O)O)C(=O)N2CCC[C@H]2C(=O)NCC(=O)N[C@H](CCC(=O)O)C(=O)N[C@@H](CCC(=O)O)C(=O)N(C)CC(=O)O[C@@H]1C [Peptide C1b] (Decanoyl-[β2hAla(R)]G[dE]YT[dI]DDPG[dE]E[Sar]; ester 5-C)
[1]; 168, 24 h
  MIC + Ca^2+: 128 µg/mL
[2]
  Lipid II (TLC binding): -
[3]
  C55-P spot on TLC after incubation with peptide (in words): no longer visible
  C55-P (TLC binding): ~

## CCCCCCCCCC(=O)NC[C@@H](C)C(=O)NCC(=O)N[C@H](CCC(=O)O)C(=O)N[C@@H](Cc1ccc(O)cc1)C(=O)N[C@@H]1C(=O)N[C@H]([C@H](C)CC)C(=O)N[C@@H](CC(=O)O)C(=O)N[C@@H](CC(=O)O)C(=O)N2CCC[C@H]2C(=O)NCC(=O)N[C@@H](CCC(=O)O)C(=O)N[C@@H](CCC(=O)O)C(=O)N(C)CC(=O)O[C@@H]1C [Peptide C2a] (Decanoyl-[β2hAla(R)]G[dE]YT[dI]DDPGEE[Sar]; ester 5-C)
[1]; 168, 24 h
  MIC + Ca^2+: 128 µg/mL
  MIC − Ca^2+: 128 µg/mL (≈ 84.4 µM)
[2]
  Lipid II (TLC binding): -
[3]
  C55-P spot on TLC after incubation with peptide (in words): no longer visible
  C55-P (TLC binding): ~

## CCCCCCCCCC(=O)NC[C@@H](C)C(=O)NCC(=O)N[C@H](CCC(=O)O)C(=O)N[C@@H](Cc1ccc(O)cc1)C(=O)N[C@@H]1C(=O)N[C@H]([C@H](C)CC)C(=O)N[C@@H](CC(=O)O)C(=O)N[C@@H](CC(=O)O)C(=O)N2CCC[C@H]2C(=O)NCC(=O)N[C@@H](CCC(=O)O)C(=O)N[C@@H](CCC(=O)O)C(=O)N(C)CC(=O)O[C@@H]1C [Peptide C2b] (Decanoyl-[β2hAla(R)]G[dE]YT[dI]DDPGEE[Sar]; ester 5-C)
[2]
  Lipid II (TLC binding): -
[3]
  C55-P spot on TLC after incubation with peptide (in words): no longer visible

## CCCCCCCCCC(=O)NC[C@@H](C)C(=O)NCC(=O)N[C@H](CCC(=O)O)C(=O)N[C@@H](Cc1ccc(O)cc1)C(=O)N[C@@H]1C(=O)N[C@H]([C@H](C)CC)C(=O)N[C@@H](CC(=O)O)C(=O)N[C@@H](CC(=O)O)C(=O)N2CCC[C@H]2C(=O)NCC(=O)N[C@@H](CCC(=O)O)C(=O)N[C@@H](CCC(=O)O)C(=O)N(C)CC(=O)O[C@@H]1C [Peptide C2c] (Decanoyl-[β2hAla(R)]G[dE]YT[dI]DDPGEE[Sar]; ester 5-C)
[2]
  Lipid II (TLC binding): -
[3]
  C55-P spot on TLC after incubation with peptide (in words): no longer visible

## CCCCCCCCCC(=O)NC[C@@H](C)C(=O)NCC(=O)N[C@H](CCC(=O)O)C(=O)N[C@@H](Cc1ccc(O)cc1)C(=O)N[C@@H]1C(=O)N[C@H]([C@H](C)CC)C(=O)N[C@@H](CC(=O)O)C(=O)N[C@@H](CC(=O)O)C(=O)N2CCC[C@H]2C(=O)NCC(=O)N[C@H](CC(=O)O)C(=O)N[C@@H](CC(=O)O)C(=O)N(C)CC(=O)O[C@@H]1C [Peptide C3] (Decanoyl-[β2hAla(R)]G[dE]YT[dI]DDPG[dD]D[Sar]; ester 5-C)
[1]; 168, 24 h
  MIC + Ca^2+: 128 µg/mL
  MIC − Ca^2+: 128 µg/mL (≈ 86 µM)
[2]
  Lipid II (TLC binding): -
[3]
  C55-P spot on TLC after incubation with peptide (in words): no spots for C55-P; also recorded: no longer visible
  C55-P (TLC binding): ~

## CCCCCCCCCC(=O)NC[C@@H](C)C(=O)NCC(=O)N[C@H](CCC(=O)O)C(=O)N[C@@H](Cc1ccc(O)cc1)C(=O)N[C@@H]1C(=O)N[C@H]([C@H](C)CC)C(=O)N[C@@H](CC(=O)O)C(=O)N[C@@H](CC(=O)O)C(=O)N2CCC[C@H]2C(=O)NCC(=O)N[C@@H](CC(=O)O)C(=O)N[C@@H](CC(=O)O)C(=O)N(C)CC(=O)O[C@@H]1C [Peptide C4] (Decanoyl-[β2hAla(R)]G[dE]YT[dI]DDPGDD[Sar]; ester 5-C)
[1]; 168, 24 h
  MIC + Ca^2+: 128 µg/mL
  MIC − Ca^2+: 128 µg/mL (≈ 86 µM)
[2]
  Lipid II (TLC binding): -
[3]
  C55-P (TLC binding): -

## CCCCCCCCCC(=O)NC[C@@H](C)C(=O)NCC(=O)N[C@H](CCC(=O)O)C(=O)N[C@@H](Cc1ccc(O)cc1)C(=O)N[C@@H]1C(=O)N[C@H]([C@H](C)CC)C(=O)N[C@@H](CC(=O)O)C(=O)N[C@@H](CC(=O)O)C(=O)N2CCC[C@H]2C(=O)NCC(=O)N[C@H](CC(=O)O)C(=O)N[C@@H](CCC(=O)O)C(=O)N(C)CC(=O)O[C@@H]1C [Peptide C5] (Decanoyl-[β2hAla(R)]G[dE]YT[dI]DDPG[dD]E[Sar]; ester 5-C)
[1]; 168, 24 h
  MIC + Ca^2+: 128 µg/mL
  MIC − Ca^2+: 128 µg/mL (≈ 85.2 µM)
[2]
  Lipid II (TLC binding): -
[3]
  C55-P (TLC binding): -

## CCCCCCCCCC(=O)NC[C@@H](C)C(=O)NCC(=O)N[C@H](CCC(=O)O)C(=O)N[C@@H](Cc1ccc(O)cc1)C(=O)N[C@@H]1C(=O)N[C@H]([C@H](C)CC)C(=O)N[C@@H](CC(=O)O)C(=O)N[C@@H](CC(=O)O)C(=O)N2CCC[C@H]2C(=O)NCC(=O)N[C@@H](CC(=O)O)C(=O)N[C@@H](CCC(=O)O)C(=O)N(C)CC(=O)O[C@@H]1C [Peptide C6] (Decanoyl-[β2hAla(R)]G[dE]YT[dI]DDPGDE[Sar]; ester 5-C)
[1]; 168, 24 h
  MIC + Ca^2+: 128 µg/mL
  MIC − Ca^2+: 128 µg/mL (≈ 85.2 µM)
[2]
  Lipid II (TLC binding): -
[3]
  C55-P spot on TLC after incubation with peptide (in words): no longer visible
  C55-P (TLC binding): ~

## CCCCCCCCCC(=O)NC[C@@H](C)C(=O)NCC(=O)N[C@H](CCC(=O)O)C(=O)N[C@@H](Cc1ccc(O)cc1)C(=O)N[C@@H]1C(=O)N[C@H]([C@H](C)CC)C(=O)N[C@@H](CC(=O)O)C(=O)N[C@@H](CC(=O)O)C(=O)N2CCC[C@H]2C(=O)NCC(=O)N[C@H](CCC(=O)O)C(=O)N[C@@H](CC(=O)O)C(=O)N(C)CC(=O)O[C@@H]1C [Peptide C7a] (Decanoyl-[β2hAla(R)]G[dE]YT[dI]DDPG[dE]D[Sar]; ester 5-C)
[1]; 168, 24 h
  MIC + Ca^2+: 128 µg/mL
  MIC − Ca^2+: 128 µg/mL (≈ 85.2 µM)
[2]
  binding to lipid II in TLC assay (in words): lack of binding
  Lipid II (TLC binding): -
[3]
  C55-P (TLC binding): -

## CCCCCCCCCC(=O)NC[C@@H](C)C(=O)NCC(=O)N[C@H](CCC(=O)O)C(=O)N[C@@H](Cc1ccc(O)cc1)C(=O)N[C@@H]1C(=O)N[C@H]([C@H](C)CC)C(=O)N[C@@H](CC(=O)O)C(=O)N[C@@H](CC(=O)O)C(=O)N2CCC[C@H]2C(=O)NCC(=O)N[C@H](CCC(=O)O)C(=O)N[C@@H](CC(=O)O)C(=O)N(C)CC(=O)O[C@@H]1C [Peptide C7b] (Decanoyl-[β2hAla(R)]G[dE]YT[dI]DDPG[dE]D[Sar]; ester 5-C)
[1]; 168, 24 h
  MIC + Ca^2+: 128 µg/mL

## Nisin [reference compound]
[2]
  binding to lipid II in TLC assay (in words): nisin-lipid II binding; also recorded: Positive binding
  Lipid II (TLC binding): +

— publication PMC12650660, “Novel Synthetic Strategies Towards Analogues of Cadaside and Malacidin Antibiotic Peptides” (Biomolecules, 2025)
